System: STAT3 occupancy on gene promoters
Assay: STAT3-ChIP assay
Assay type: cell-based, human
Description: (A) IL-22 induced STAT3 phosphorylation. Colon cancer cells were treated with IL-22 for different time points. The protein levels of phosphorylated STAT3 and STAT3 were detected by Western blotting. (B, C) IL-22 induced colon cancer spheres via STAT3. Sphere assay was performed with shSTAT3 colon cancer cells in the presence of IL-22. Results were shown as sphere images (b) and the mean numbers of spheres in triplicate (c). (n=5. P<0.01). (D-F) IL-22 stimulated colon cancer sternness gene expression via STAT3. Colon cancer cells expressing shSTAT3 or scrambled vector were cultured with IL-22. Stem cell core gene mRNAs were detected by real-time PCR after 6 hours (n=5, *P<0.05). (G, H) IL-22 causes STAT3 occupancy on SOX2 promoter areas. STAT3-ChIP assay was performed in DLD-1 cells cultured with or without IL-22. One of at least three experiments is shown.
(A-C)IL-22 increases STAT3 occupancy on the DOT1L (A), AFF4 (B), and MLLT3 (C) proximal promoter. STAT3-ChIP assay was performed in DLD-1 colon cancer cells cultured with or without IL-22. One of three experiments is shown. (D-F) STAT3 knock down reduces H3K79me2 occupancy at proximal promoters of core stem cell genes. H3K79me2-ChIP was performed in colon cancer cells cultured with IL-22 for 24 hours. One of three experiments is shown.
A. The protein level of phosphorylated STAT3, STAT1 and STATS were activated by IL-22. B. The effect of STAT3 knock down. C. The effect of IL-22 on cell proliferation was analyzed using H^3 Thymidine Incorporation in Stat3 knock down cells. D. Knock down of STAT3 reduced the expression of EZH2 and SUZ12. E. Based on the ENCODE STAT3-ChIP-Seq data base, STAT3 occupancy on the promoter areas of SUZ12 and EED is shown. F. SUZ12/EED DNA was detected by ChIP assay using an antibody against STAT3, c-fos was used as a positive control.
ChIP assay was performed according to the protocol with exceptions stated below (Upstate, Millipore; http://www. (followed by) millipore.com/techpublications/tech1/mcproto407). Crosslinking was performed with 1% formaldehyde or 1% paraformaldehyde for 10 minutes. […]

Q: For “IL-22: recombinant IL-22 (R&D systems), cytokine interleukin-22”, which “recruitment of STAT3 to the SUZ12 and EED promoter” value (ChIP realtime PCR) is on record?
A: The value was “significantly increased”.

Q: And the “STAT3 binding on the SOX2 promoter area” value (DLD-1 with or without IL-22)?
A: The value was “increased”.

Q: And the “STAT3 binding to the DOT1L, AFF4 and MLLT3 promoter” value (DLD-1 with or without IL-22)?
A: The value was “increased”.
